Experimental data as given in patent publication US20230230249A1, “DIGITAL ANTIMICROBIAL SUSCEPTIBILITY TESTING” (ARIZONA BOARD OF REGENTS ON BEHALF OF ARIZONA STATE …, priority 2020, published 2023).

Test system: E. coli ATCC 25922
Assay: Digital AST by LVSi single-cell division tracking, pure E. coli samples
Assay type: cell-based
Details: for bacterial cell growth (normalized cumulative division events) versus control: different batches of E. coli; for average counting number of cell spots during 5-min video: 37° C., stationary phase cells
Protocol: E. coli ATCC 25922 were purchased from American Type Culture Collection (ATCC) and stored at −80° C. in 5% glycerol. Antibiotics, including ciprofloxacin and ampicillin were purchased from Sigma-Aldrich. The antibiotic powders were stored in the dark at 2 to 8° C. Frozen E. coli strains were thawed, and 50 μL of the cells were cultured in 5 mL of Luria-Bertani (LB) medium (per liter: 10 g peptone 140, 5 g yeast extract, and 5 g sodium chloride) at 37° C. and 150 rpm for 15 h. Then the overnight cultured E. coli was inoculated into LB broth directly. After dilution to appropriate cell concentrations, antibiotics were added to the E. coli suspensions.
The dual channel LVSi system depicted in FIG. 1A was used, with two 800 mW, 780 nm infrared (IR) LEDs (M780LP1, Thorlabs, Inc., USA), each with collimating and focusing lenses and a central blocking aperture to focus a ring-shaped illumination through the sample or the reference cuvettes. Wide-view and deep field depth scattering images were recorded by two CMOS cameras (BFS-U3-16S2M-CS, Point Grey Research Inc., Canada) at 10 fps through two 2×variable zoom lens (NAVITAR 12×, Navitar, USA), for the sample and reference cuvettes, respectively. The image volume was determined by the viewing size and focal depth of the optics. For these experiments, the viewing area of 2.5 mm×1.9 mm×1.0 mm was equivalent to 4.8 μL at 2.0× magnifying power. The imaging system was enclosed in a thermally isolated housing with a controlled temperature (37° C.).
Individual cells recorded by LVSi are resolved as bright spots. Before division tracking, each spot was detected with a Laplacian of Gaussian (LoG) filter with defined radius and threshold. Then, the spots from adjacent time frames were connected with a Karman filter for directional linking. So each bright spot became a single-cell trajectory. To track the division events, the newly appeared cell trajectories (those from the image edges excluded) were first filtered out as the child trajectory candidates, and for each child trajectory candidate, the nearby old trajectories (appeared before the child trajectory candidate) were checked. If there was a close-by old trajectory split at the start time of the child trajectory candidate, a potential division event was tracked. To filter out the merge/crossing induced splitting, the spots merging events were also checked and were filtered out from the potential division events. Finally, an intensity filter was used to evaluate the remaining division events, ensuring the parent cell intensity is about the summation of the two divided child ones, and the two child ones are similar in size.
To validate that the tracked division events were due to real cell growth, rather than an artifact of the particle merging or crossing, a division over-counting calibration test was designed. To rule out the real division events, the E. coli cells were heated at ˜65° C. for 15 min. Then, each 5-min video of the heated E. coli cells with different concentrations (2.0×10^4˜2.0×10^5 CFU/mL, corresponding to 100-1000 spots in image view) were analyzed for single-cell division tracking. Each concentration test was repeated three times. Then, the division over-counting calibration curve was extracted from the tracking results. The division over-counting is less an issue when the cell number is below 500, corresponding to the bacterial concentration of about 1.0×10^5 CFU/mL. When the cell number is above 500, some miss-counting of division events occurred. To rule out the cell density induced division over-counting, the final division events in all clinical samples were calibrated by subtracting the cell density associated over counted division events.
The statistical error of the division tracking was estimated by the mentioned division over-counting calibration. […]

Structure (SMILES): CC1(C)S[C@@H]2[C@H](NC(=O)[C@H](N)c3ccccc3)C(=O)N2[C@H]1C(=O)O [ampicillin]
- bacterial cell growth (normalized cumulative division events) versus control (16 μg/mL ampicillin, 60 min (FIG. 5C, 5D)): clear inhibition in bacterial cell growth

Structure (SMILES): O=C(O)c1cn(C2CC2)c2cc(N3CCNCC3)c(F)cc2c1=O [ciprofloxacin]
- cumulative division events growth curve compared with control (2 μg/mL ciprofloxacin, 60 min (FIG. 4F)): no obvious increases in the growth curve
- bacterial cell growth (normalized cumulative division events) versus control (2 μg/mL ciprofloxacin, 60 min (FIG. 5A, 5B)): clear inhibition in bacterial cell growth
- average counting number of cell spots during 5-min video (2 μg/mL ciprofloxacin, snapshot at 5 min): 118±8
- average counting number of cell spots during 5-min video (2 μg/mL ciprofloxacin, snapshot at 30 min): 114±5
- average counting number of cell spots during 5-min video (2 μg/mL ciprofloxacin, snapshot at 60 min): 106±4
